The test system of one assay is PC3 (prostate). Nature of the assay: In vitro cytotoxic activity assay (MTT), PC3. Format: cell-based. To be noted: Homo sapiens, Prostate cell; PC3 (prostate) cells, exposed for 96 hours; read-out: IC50, concentration eliciting a 50% inhibition of cell proliferation. The method, then:
(§1) Compounds 1-15 were screened for their in vitro cytotoxic activity utilizing a 3-(4,5-dimethyl-thiazol-2-yl)-2,5-diphenyltetrazolium bromide (MTT) assay against selected cancer human cell lines consisting of PC3 (prostate), HCT116 (colon), A375 (melanoma), H1299 (lung), MIAPaCa-2 (pancreas), HL60 (leukemia), MCF7 (breast), MDA-MB-231 (breast) (T. Mosmann, J. Immunol. Meth., 1983, 65, 55-63). The cells were cultured at 37° C. in RMPI1640 medium supplemented with 10% fetal bovine serum, 50 IU/mL penicillin, and 50 μg/mL streptomycin in a 5% CO2 incubator. All cells were sub-cultured 3 times/week by trypsinisation. Viable cells were seeded and allowed to adhere for 12 h before a test drug was added in 96-well plates at an initial density of 1.0×10^5 cells/mL. Tumour cell lines were separately exposed to various concentrations of the tested compounds followed by incubation at a temperature of 37° C. during 96 h inside a medium of fresh RMPI 1640. Cells were subsequently incubated at 37° C. using MIT at 0.5 mg/mL during 4 h. After removal of supernatant, formazan crystals were dissolved in isopropanol and the optical density was measured at 570 nm. CX-4945 was used as a positive control.

The test system of another assay is A375 (melanoma). Kind of assay: In vitro cytotoxic activity assay (MTT), A375. To be noted: Homo sapiens, A-375; A375 (melanoma) cells, exposed for 96 hours; read-out: IC50, concentration eliciting a 50% inhibition of cell proliferation. The assay is classed as cell-based. The method, then: as §1
The subject of the next assay is MIAPaCa-2 (pancreas). Nature of the assay: In vitro cytotoxic activity assay (MTT), MIAPaCa-2. The assay is classed as cell-based. To be noted: Homo sapiens, MIA PaCa-2; MIAPaCa-2 (pancreas) cells, exposed for 96 hours; read-out: IC50, concentration eliciting a 50% inhibition of cell proliferation. As to the method: as §1
In assay [1] the target is T1, recombinant human CK2 (RRββ-holoenzyme) (Homo sapiens, UniProt P68400).
T1 construct: purchased Millipore
T1 sequence (P68400 whole entry): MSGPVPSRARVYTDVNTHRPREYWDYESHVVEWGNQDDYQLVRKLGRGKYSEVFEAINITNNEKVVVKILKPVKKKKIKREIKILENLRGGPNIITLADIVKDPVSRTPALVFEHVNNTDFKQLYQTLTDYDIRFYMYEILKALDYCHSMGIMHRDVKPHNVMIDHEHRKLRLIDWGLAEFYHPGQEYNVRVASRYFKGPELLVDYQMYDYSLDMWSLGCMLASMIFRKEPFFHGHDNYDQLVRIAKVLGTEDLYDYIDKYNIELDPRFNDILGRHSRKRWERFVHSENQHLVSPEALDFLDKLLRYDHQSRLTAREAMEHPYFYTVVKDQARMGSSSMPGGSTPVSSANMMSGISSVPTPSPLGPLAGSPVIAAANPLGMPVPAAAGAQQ
T1 sequence (P67870 whole entry partner): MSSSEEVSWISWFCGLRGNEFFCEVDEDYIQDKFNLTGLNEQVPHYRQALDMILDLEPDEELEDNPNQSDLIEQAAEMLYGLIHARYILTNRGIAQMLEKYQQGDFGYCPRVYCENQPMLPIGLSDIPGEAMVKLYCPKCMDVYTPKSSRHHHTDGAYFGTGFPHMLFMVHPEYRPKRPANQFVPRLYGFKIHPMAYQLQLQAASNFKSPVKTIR
Nature of the assay: CK2 Kinase Assay (33P-ATP, filter plate). Format: biochemical. To be noted: final ATP concentration 15 μM, 10 min at 30° C.; read-out: protein kinase CK2 activity IC50. The method, then:
CK2 Kinase Assay was conducted using the protocol as described in Pierre F. et al; J. Med. Chem. 2011, 54, 635-654. The tested compounds in aqueous solution were added at a volume of 10 μL to a reaction mixture comprising 10 μL of assay dilution buffer (ADB; 20 mM MOPS, pH 7.2, 25 mM β-glycerol phosphate, 5 mM EGTA, 1 mM sodium orthovanadate, and 1 mM dithiothreitol), 10 μL of substrate peptide (RRRDDDSDDD, dissolved in ADB at a concentration of 1 mM), 10 μL of recombinant human CK2 (RRββ-holoenzyme, 25 ng dissolved in ADB; Millipore). Reactions were initiated by the addition of 10 μL of ATP solution (90% 75 mMMgCl2, 75 μM ATP (final ATP concentration: 15 μM) dissolved in ADB; 10% [γ-33P] ATP (stock 1 mCi/100 μL; 3000 Ci/mmol (Perkin-Elmer) and maintained for 10 min at 30° C. The reactions were quenched with 100 μL of 0.75% phosphoric acid and then transferred to and filtered through a phosphor cellulose filter plate (Millipore). After washing each well five times with 0.75% phosphoric acid, the plate was dried under vacuum for 5 min and, following the addition of 15 μL of scintillation fluid to each well, the residual radioactivity was measured using a Wallac luminescence counter. The IC50 values were derived from eight concentrations of test inhibitors.

Another assay relates to HL60 (leukemia). Nature of the assay: In vitro cytotoxic activity assay (MTT), HL60. Format: cell-based. To be noted: Homo sapiens, HL-60; HL60 (leukemia) cells, exposed for 96 hours; read-out: IC50, concentration eliciting a 50% inhibition of cell proliferation. The method, then: as §1
The subject of a further assay is HCT116 (colon). Nature of the assay: In vitro cytotoxic activity assay (MTT), HCT116. To be noted: Homo sapiens, HCT-116; HCT116 (colon) cells, exposed for 96 hours; read-out: IC50, concentration eliciting a 50% inhibition of cell proliferation. Format: cell-based. The method, then:
as §1

A further assay concerns MCF7 (breast). Kind of assay: In vitro cytotoxic activity assay (MTT), MCF7. The assay is classed as cell-based. To be noted: Homo sapiens; MCF7 (breast) cells, exposed for 96 hours; read-out: IC50, concentration eliciting a 50% inhibition of cell proliferation. As to the method:
as §1

The test system of another assay is MDA-MB-231 (breast). Kind of assay: In vitro cytotoxic activity assay (MTT), MDA-MB-231. The assay is classed as cell-based. To be noted: Homo sapiens; MDA-MB-231 (breast) cells, exposed for 96 hours; read-out: IC50, concentration eliciting a 50% inhibition of cell proliferation. As to the method:
as §1

The subject of the next assay is H1299 (lung). Nature of the assay: In vitro cytotoxic activity assay (MTT), H1299. The assay is classed as cell-based. To be noted: Homo sapiens, NCI-H1299; H1299 (lung) cells, exposed for 96 hours; read-out: IC50, concentration eliciting a 50% inhibition of cell proliferation. The method, then: as §1

Take `Clc1cccc(-n2c3ccncc3c3nc4ccncn4c32)c1` [Compound 1, 5-(3-chlorophenyl)-5H-pyrido[3″,4″:4′,5′]pyrrolo[3′,2′:4,5]imidazo[1,2-c]pyrimidine]: the IC50 in the assay on PC3 (prostate) turned out to be 1.3 µM; in the assay with A375 (melanoma) it was 3.7 µM; in the assay on MIAPaCa-2 (pancreas) it was 0.9 µM; in assay [1], 0.056 µM; with HL60 (leukemia), 2.8 µM; in the assay on HCT116 (colon) it was 2.1 µM. For the same compound, the IC50 with MCF7 (breast) was 4.1 µM; in the assay with MDA-MB-231 (breast), 2.4 µM; in the assay on H1299 (lung), 2.6 µM.

The values above are taken from patent publication US11905288B1, “Pyrido[3″,4″:4′, 5′]pyrrolo[3′,2′:4,5]imidazole[1,2-c]pyrimidine compounds as CK2 inhibitors” (KING FAISAL UNIVERSITY, priority 2023, dated 2024).
